Measurements: patent US8741914B2, “Antiviral compounds and uses thereof” (priority 2009, dated 2014)

Experiments:
[1] = molecular target: T1, HCV polymerase 1A (Δ21 NS5B, H77) (Hepatitis C virus genotype 1a, UniProt P27958); assay: HCV Polymerase Inhibition Assay (1a); assay type: biochemical
T1 construct: 20 to 50 nM Δ21 NS5B
Method: (§1) The reaction was initiated by the addition of 20 μM CTP, 20 μM ATP, 1 μM ^3H-UTP (10 mCi/μmol), 5 nM template RNA and 0.1 U/μL RNase inhibitor (RNasin, Promega), and allowed to proceed for 2 to 4 hours at room temperature. Reaction volume was 50 μL. The reaction was terminated by the addition of 1 volume of 4 mM spermine in 10 mM Tris-Cl pH 8.0, 1 mM EDTA. After incubation for at least 15 minutes at room temperature, the precipitated RNA was captured by filtering through a GF/B filter (Millipore) in a 96 well format. The filter plate was washed three times with 200 μL each of 2 mM spermine, 10 mM Tris-Cl pH 8.0, 1 mM EDTA, and 2 times with ethanol. After air-drying, 30 μL of Microscint 20 scintillation cocktail (Packard) was added to each well, and the retained cpm were determined by scintillation counting. […] Retained cpm were plotted vs. inhibitor concentration and fit to equation 1 using non-linear regression (ref. 1) to obtain the IC50 values: Retained cpm=A[sqrt{(IC50+It−Et)^2+4*IC50*Et}−(IC50+It−Et)] (equation 1) where A=Vmax[S]/2(Km+[S]); It=total inhibitor concentration and Et=total active concentration of enzyme.
(§2) Ref. Morrison, J. F. and S. R. Stone. 1985. Approaches to the study and analysis of the inhibition of enzymes by slow- and tight-binding inhibitors. Comments Mol. Cell. Biophys. 2: 347-368.
(§3) The sequence of the template RNA used was: 5′-[…] […] […] […] […] […] […] […] […] […] […] […] […] […] […] […] […]-3′ (SEQ ID NO: 1).

[2] = molecular target: T2, HCV polymerase 1B (Δ21 NS5B, BK) (Hepatitis C virus genotype 1b, UniProt P26663); assay: HCV Polymerase Inhibition Assay (1b); assay type: biochemical
T2 construct: 20 to 50 nM Δ21 NS5B
Method: as §1, §2, §3

[3] = test system: genotype 1a-H77 subgenomic replicon cell line; assay: HCV Polymerase Replicon Assay (genotype 1a-H77); assay type: cell-based; conditions: Hepatitis C virus, 72 h; 1a-H77 replicon, luciferase reporter, 5% FBS, three days
[4] = test system: genotype 1b-Con1 subgenomic replicon cell line; assay: HCV Polymerase Replicon Assay (genotype 1b-Con1); assay type: cell-based; conditions: Hepatitis C virus, 72 h; 1b-Con1 replicon, luciferase reporter, 5% FBS, three days

T1 sequence (P27958 2421-2990, stated change not applied): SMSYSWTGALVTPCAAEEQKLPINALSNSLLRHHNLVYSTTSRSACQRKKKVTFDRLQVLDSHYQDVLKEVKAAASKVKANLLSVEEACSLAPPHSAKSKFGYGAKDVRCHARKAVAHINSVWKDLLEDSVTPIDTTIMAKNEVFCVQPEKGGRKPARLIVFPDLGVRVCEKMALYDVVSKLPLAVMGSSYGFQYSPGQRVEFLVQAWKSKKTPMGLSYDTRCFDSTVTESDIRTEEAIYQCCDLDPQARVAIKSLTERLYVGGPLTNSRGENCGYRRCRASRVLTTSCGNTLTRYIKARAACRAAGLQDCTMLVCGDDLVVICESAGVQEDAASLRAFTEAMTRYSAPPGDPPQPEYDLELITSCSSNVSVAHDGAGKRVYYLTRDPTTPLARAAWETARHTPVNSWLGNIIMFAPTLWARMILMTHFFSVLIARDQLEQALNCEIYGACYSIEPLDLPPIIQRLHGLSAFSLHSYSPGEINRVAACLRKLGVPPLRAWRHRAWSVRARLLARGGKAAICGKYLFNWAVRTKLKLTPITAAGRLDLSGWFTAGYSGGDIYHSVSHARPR
T2 sequence (P26663 2420-2989, stated change not applied): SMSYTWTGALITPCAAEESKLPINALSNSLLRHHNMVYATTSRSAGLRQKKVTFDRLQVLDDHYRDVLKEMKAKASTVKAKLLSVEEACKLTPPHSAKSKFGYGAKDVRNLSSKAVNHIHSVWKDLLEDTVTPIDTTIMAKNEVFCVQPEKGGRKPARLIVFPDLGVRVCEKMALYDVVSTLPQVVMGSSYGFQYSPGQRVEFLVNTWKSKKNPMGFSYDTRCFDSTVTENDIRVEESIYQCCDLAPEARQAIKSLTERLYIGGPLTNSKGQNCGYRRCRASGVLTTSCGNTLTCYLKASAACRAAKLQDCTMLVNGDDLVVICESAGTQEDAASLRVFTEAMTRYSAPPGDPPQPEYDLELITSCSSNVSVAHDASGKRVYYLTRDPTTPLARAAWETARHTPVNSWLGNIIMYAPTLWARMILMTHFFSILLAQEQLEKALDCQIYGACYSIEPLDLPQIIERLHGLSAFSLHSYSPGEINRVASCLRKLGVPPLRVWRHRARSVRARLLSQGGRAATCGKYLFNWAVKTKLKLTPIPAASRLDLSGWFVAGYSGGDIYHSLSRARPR

Row | Structure (SMILES) | IC50 [1] | IC50 [2] | EC50 [3] | EC50 [4]
1 | CC(C)(C)c1cc(-n2ccc(=O)[nH]c2=O)cc2c(Nc3ccc(NS(C)(=O)=O)cc3)ncnc12 [Compound 5, N-(4-(8-tert-butyl-6-(2,4-dioxo-3,4-dihydropyrimidin-1(2H)-yl)quinazolin-4-ylamino)phenyl)methanesulfonamide] | 10 to 100 nM | 10 to 100 nM | > 1000 nM | 100 to 1000 nM
2 | CC(C)(C)c1cc(N2CCC(=O)NC2=O)cc2c(Nc3ccc(NS(C)(=O)=O)cc3)ncnc12 [Compound 6, N-(4-(8-tert-butyl-6-(2,4-dioxotetrahydropyrimidin-1(2H)-yl)quinazolin-4-ylamino)phenyl)methanesulfonamide] | 10 to 100 nM | 10 to 100 nM | 100 to 1000 nM | 100 to 1000 nM
3 | CC(C)(C)c1cc(-n2ccc(=O)[nH]c2=O)cc2c(Nc3cc(CNS(C)(=O)=O)cs3)ncnc12 [Compound 7, N-((5-(8-tert-butyl-6-(2,4-dioxo-3,4-dihydropyrimidin-1(2H)-yl)quinazolin-4-ylamino)thiophen-3-yl)methyl)methanesulfonamide] | 10 to 100 nM | < 10 nM | > 1000 nM | 100 to 1000 nM
4 | COc1c(C(C)(C)C)cc(-n2ccc(=O)[nH]c2=O)c2ccc(-c3ccc(NS(C)(=O)=O)cc3)nc12 [Compound 2, N-(4-(7-tert-butyl-5-(2,4-dioxo-3,4-dihydropyrimidin-1(2H)-yl)-8-methoxyquinolin-2-yl)phenyl)methanesulfonamide] | > 1000 nM | > 1000 nM |  | 
5 | CC1(C)CC(=O)Oc2c1cc(N1CCC(=O)NC1=O)c1ccccc21 [Compound 4, 1-(4,4-dimethyl-2-oxo-3,4-dihydro-2H-benzo[h]chromen-6-yl)dihydropyrimidine-2,4(1H,3H)-dione] | > 1000 nM | 100 to 1000 nM |  | 
6 | CC1(C)COc2c(-c3ccc4cc(NS(C)(=O)=O)ccc4c3)cc(-n3ccc(=O)[nH]c3=O)cc21 [Compound 3, N-(6-(5-(2,4-dioxo-3,4-dihydropyrimidin-1(2H)-yl)-3,3-dimethyl-2,3-dihydrobenzofuran-7-yl)naphthalen-2-yl)methanesulfonamide] | < 10 nM | 10 to 100 nM | 100 to 1000 nM | 10 to 100 nM
7 | COc1c(C(C)(C)C)cc(-n2ccc(=O)[nH]c2=O)c2cccnc12 [Compound 1, 1-(7-tert-butyl-8-methoxyquinolin-5-yl)pyrimidine-2,4(1H,3H)-dione] | 10 to 100 nM | 10 to 100 nM | 100 to 1000 nM | ≤ 10 nM
